Reference: US5837684A, “Peptides” (Nycomed Imaging AS, priority 1995, dated 1998)

Key:
[1] = molecular target: binary complex of TF/FVIIa (Homo sapiens, UniProt P00742); assay: lipidated TF assay (chromogenic assay measuring the FXa generated by TF/FVIIa); assay type: biochemical; conditions: for IC50: FVIIa 5 pM, FX 20 nM, TF 5 pM, CaCl2 5 mM, 15 min preincubation at ambient temperature, FXa substrate S2765, read-out: IC50: concentration of peptide inhibiting the rate of FX activation by 50%; for IC values (statement in words): lipidated TF assay, summary of Table 1
Experimental: The inhibitory capacity of the peptides was measured by a so-called lipidated TF assay which is a chromogenic assay measuring the FXa generated by the binary complex of TF/FVIIa. FVIIa (5 pM final concentration) and FX (20 nM) were combined in the presence of different concentrations of peptide and incubated for 15 min at ambient temperature. TF (5 pM) and CaCl2 (5 mM) were added to initiate the reaction. Reactions were quenched with EDTA and the FXa activity was measured in an amidolytic assay, using the chromogenic FXa substrate S2765 (trade name). Data from these studies with this assay are shown in FIG. 1, and Table 1 hereinafter gives the corresponding IC values. Data are plotted as the percentage of the rate of FXa formation determined without peptide versus the concentration of the following peptides: hu#154-163 (SEQ. ID. NO. 1) (.circle-solid.), mu#158-167 (SEQ. ID. NO. 2) (x) and rb#152-161 (SEQ. ID. NO. 3) (Δ).

[2] = molecular target: TF/FVIIa complex (FX activation) (Homo sapiens, UniProt P00742); assay: Dixon plot analysis of the inhibitory mechanism of FXa formation; assay type: biochemical; conditions: Dixon plots; three FX concentrations or three TF concentrations in excess of FVIIa
Experimental: Different concentrations of peptide were mixed with FVIIa and three different concentrations of FX and, after addition of TF, the rate of FXa formation was determined. In another experiment, different concentrations of peptide were mixed with FVIIa and three different concentrations of TF, in excess of FVIIa. After addition of FX, the rate of FXa formation was determined. Results were plotted according to Dixon, the inverse of the rate of FXa formation versus peptide concentration. Peptide mu#158-167 (SEQ. ID. No. 2), produced linear regression lines, which intercepted on the abscissa (different FX concentrations) or above the abscissa (different TF concentrations).

binary complex of TF/FVIIa, sequence (P00742 41-179 limits assumed): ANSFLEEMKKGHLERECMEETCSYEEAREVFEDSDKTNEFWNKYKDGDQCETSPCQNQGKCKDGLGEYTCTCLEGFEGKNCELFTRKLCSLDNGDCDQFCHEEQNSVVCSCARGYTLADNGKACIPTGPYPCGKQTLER
binary complex of TF/FVIIa, sequence (P00742 235-488 limits assumed): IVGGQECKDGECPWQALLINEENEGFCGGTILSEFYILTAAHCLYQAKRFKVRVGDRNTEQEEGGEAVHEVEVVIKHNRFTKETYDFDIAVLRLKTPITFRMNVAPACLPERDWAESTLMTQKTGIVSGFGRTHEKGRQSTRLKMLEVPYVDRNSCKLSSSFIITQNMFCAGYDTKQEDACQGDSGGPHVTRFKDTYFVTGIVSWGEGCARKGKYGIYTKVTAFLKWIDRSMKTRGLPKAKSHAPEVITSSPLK
TF/FVIIa complex (FX activation), sequence (P00742 41-179 limits assumed): as the sequence (P00742 41-179 limits assumed) above
TF/FVIIa complex (FX activation), sequence (P00742 235-488 limits assumed): as the sequence (P00742 235-488 limits assumed) above

| Substance | IC50 [1] | inhibitory mechanism of FXa formation [2] | IC values (statement in words) [1] |
| --- | --- | --- | --- |
| H-TLYYWKSSSS-OH [hu#154-163, H--Thr--Leu--Tyr--Tyr--Trp--Lys--Ser--Ser--Ser--Ser--OH] | 100 µM | – | – |
| H-IITYRKGSST-OH [mu#158-167, H--Ile--Ile--Thr--Tyr--Arg--Lys--Gly--Ser--Ser--Thr--OH] | 21 µM | competes with TF or FVIIa/TF complex for interaction with FX | very low μm range |
| H--Thr--Leu--Tyr--Tyr--Trp--Arg--Ala--Ser--Ser--Thr--OH (H-TLYYWRASST-OH) [rb#152-161, 10-mer of rabbit TF residues 152-161] | 14 µM | – | very low μm range |
